This test deals with P388 leukemia ip, CD2F1 mice, survival T/C. Description: NCI In Vivo Anticancer Drug Screen. Data for tumor model P388 Leukemia (intraperitoneal) in CD2F1 (CDF1) mice. The following applies: endpoint: median survival time, higher = longer survival. The essentials:
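Mice carrying the transplanted tumor received test compound or vehicle. Survival was recorded in each group, and the value is the treated-group measurement divided by that of the vehicle-treated control group.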

Setting [1] is: dose: 25.0 mg/kg/injection, schedule: Q01DX009 (ip), vehicle: saline.
The mark [2] stands for this setting: dose: 50.0 mg/kg/injection, schedule: Q01DX005 (ip), vehicle: saline with Tween-80.
[3] abbreviates: dose: 100.0 mg/kg/injection, schedule: Q01DX005 (ip), vehicle: saline with Tween-80.
Where [4] appears, read: dose: 200.0 mg/kg/injection, schedule: Q01DX005 (ip), vehicle: saline with Tween-80.
Where [5] appears, read: dose: 25.0 mg/kg/injection, schedule: Q04DX002 (ip), vehicle: saline.
The mark [6] stands for this setting: dose: 50.0 mg/kg/injection, schedule: Q04DX002 (ip), vehicle: saline.
[7] abbreviates: dose: 100.0 mg/kg/injection, schedule: Q01DX009 (ip), vehicle: saline with Tween-80.
The mark [8] stands for this setting: dose: 200.0 mg/kg/injection, schedule: Q01DX009 (ip), vehicle: saline with Tween-80.
Setting [9] is: dose: 50.0 mg/kg/injection, schedule: Q01DX009 (ip), vehicle: suspension in saline.
Where [10] appears, read: dose: 100.0 mg/kg/injection, schedule: Q01DX009 (ip), vehicle: suspension in saline.
[11] abbreviates: dose: 200.0 mg/kg/injection, schedule: Q01DX005 (ip), vehicle: Klucel (hydroxypropylcellulose) (HPC).

Several values for one entry are separate records, joined by “and”; a condition that tells them apart may be missing. Equal values may be shown once. Toxic doses and inconclusive results are not listed.

For `ClC1CC[N-]CC1.ClC1CC[N-]CC1.[Cl][Pt+2]([Cl])([Cl])[Cl]`, the T/C (dose: 1.56 mg/kg/injection, schedule: Q01DX009 (ip), vehicle: saline) is 100 % of control; the T/C (dose: 3.13 mg/kg/injection, schedule: Q01DX009 (ip), vehicle: saline) was 108 % of control; the T/C (dose: 6.25 mg/kg/injection, schedule: Q01DX009 (ip), vehicle: Klucel (hydroxypropylcellulose) (HPC)) was 166 % of control; the T/C (dose: 12.5 mg/kg/injection, schedule: Q01DX009 (ip), vehicle: Klucel (hydroxypropylcellulose) (HPC)) was 192 % of control; the T/C (dose: 12.5 mg/kg/injection, schedule: Q01DX009 (ip), vehicle: saline) was 153 % of control; the T/C (dose: 25.0 mg/kg/injection, schedule: Q01DX009 (ip), vehicle: Klucel (hydroxypropylcellulose) (HPC)) was 245 % of control. The T/C was 172 % of control under setting [1] and 113 % of control (dose: 50.0 mg/kg/injection, schedule: Q01DX009 (ip), vehicle: Klucel (hydroxypropylcellulose) (HPC)).
Regarding `O=C1c2ccccc2-n2c1nc1ccccc1c2=O`, the T/C by setting is: under setting [2], 102 % of control; under setting [3], 100 % of control; under setting [4], 107 % of control.
Regarding `CSc1sc(C#N)c(N)c1N=Cc1ccccc1`, the T/C was 106 % of control (dose: 12.5 mg/kg/injection, schedule: Q04DX002 (ip), vehicle: saline with Tween-80); 101 % of control (dose: 25.0 mg/kg/injection, schedule: Q04DX002 (ip), vehicle: saline with Tween-80); 97 % of control (dose: 50.0 mg/kg/injection, schedule: Q04DX002 (ip), vehicle: saline with Tween-80).
For `CN=C(N)N/N=C/c1ccc(-c2ccccc2)cc1`, the T/C by setting is: under setting [5], 105 % of control; under setting [6], 111 % of control.
In the case of `CCC1(CC)COC(C)(C(=O)O)OC1`, the T/C (dose: 25.0 mg/kg/injection, schedule: Q01DX009 (ip), vehicle: saline with Tween-80) was 102 % of control; the T/C (dose: 50.0 mg/kg/injection, schedule: Q01DX009 (ip), vehicle: saline with Tween-80) was 102 % of control; the T/C under setting [7] is 94 % of control; the T/C under setting [8] was 96 % of control.
As for `COC(=O)C1c2cc(OC)c(OC)cc2C(=O)N2CCc3cc4c(cc3C12)OCO4` (stereo unspecified), the T/C was 100 % of control and 101 % of control (dose: 50.0 mg/kg/injection, schedule: Q04DX003 (ip), vehicle: distilled water + Tween-80); 99 % of control and 105 % of control (dose: 100.0 mg/kg/injection, schedule: Q04DX003 (ip), vehicle: distilled water + Tween-80); 97 % of control and 101 % of control (dose: 200.0 mg/kg/injection, schedule: Q04DX003 (ip), vehicle: distilled water + Tween-80); 104 % of control and 100 % of control (dose: 400.0 mg/kg/injection, schedule: Q04DX003 (ip), vehicle: distilled water + Tween-80).
As for `COc1cccc2c1C(=O)c1c(O)c3c(c(O)c1C2=O)C[C@@](O)(C(=O)CSC(=O)c1ccccc1)C[C@@H]3OC1CC(N)C(O)C(C)O1` (stereo partly specified), the T/C runs as follows: (dose: 25.0 mg/kg/injection, schedule: Q01DX001 (ip), vehicle: water) 123 % of control; (dose: 50.0 mg/kg/injection, schedule: Q01DX001 (ip), vehicle: water) 109 % of control.
As for `Cc1ccc(S(=O)(=O)N/N=C/c2c(C)nc3n2CCS3)cc1`, the T/C runs as follows: (dose: 100.0 mg/kg/injection, schedule: Q01DX001 (ip), vehicle: Klucel (hydroxypropylcellulose) (HPC)) 101 % of control; (dose: 200.0 mg/kg/injection, schedule: Q01DX001 (ip), vehicle: Klucel (hydroxypropylcellulose) (HPC)) 102 % of control; (dose: 400.0 mg/kg/injection, schedule: Q01DX001 (ip), vehicle: Klucel (hydroxypropylcellulose) (HPC)) 102 % of control.
For `CCN(CC)c1ccc2nc3ccc(N=Nc4c(O)ccc5ccccc45)cc3[n+](-c3ccccc3)c2c1`, the T/C is, setting by setting: (dose: 0.75 mg/kg/injection, schedule: Q01DX005 (ip), vehicle: saline with Tween-80) 115 % of control; (dose: 1.5 mg/kg/injection, schedule: Q01DX005 (ip), vehicle: saline with Tween-80) 120 % of control; (dose: 3.0 mg/kg/injection, schedule: Q01DX005 (ip), vehicle: saline with Tween-80) 120 % of control; (dose: 6.0 mg/kg/injection, schedule: Q01DX005 (ip), vehicle: saline with Tween-80) 90 % of control.
For `Cc1ccc(C(=O)Cc2nc3nnc(N)n3nc2CC(=O)c2ccc(C)cc2)cc1`, the T/C (dose: 50.0 mg/kg/injection, schedule: Q01DX005 (ip), vehicle: saline) is 97 % of control; the T/C (dose: 100.0 mg/kg/injection, schedule: Q01DX005 (ip), vehicle: saline) was 100 % of control; the T/C (dose: 200.0 mg/kg/injection, schedule: Q01DX005 (ip), vehicle: saline) is 97 % of control.
Regarding `FC(F)(F)c1ccc(NC(=S)SCc2ccc3c(c2)OCO3)cc1`, the T/C is 98 % of control under setting [9] and 93 % of control under setting [10].
Consider `CCCCN(CCCC)Cc1c(C)[nH]c2ccc(N(C)C)cc2c1=O`, for which the T/C was 108 % of control under setting [9] and 103 % of control under setting [10].
For `CSC(SC)=C(C#N)C#N`, the T/C (dose: 25.0 mg/kg/injection, schedule: Q04DX003 (ip), vehicle: saline) is 104 % of control; the T/C (dose: 50.0 mg/kg/injection, schedule: Q04DX003 (ip), vehicle: saline) was 105 % of control; the T/C (dose: 100.0 mg/kg/injection, schedule: Q04DX003 (ip), vehicle: saline) was 108 % of control.
For `Cc1cccnc1NS(=O)(=O)c1ccccc1`, the T/C runs as follows: under setting [7], 100 % of control; under setting [8], 100 % of control; (dose: 400.0 mg/kg/injection, schedule: Q01DX009 (ip), vehicle: saline with Tween-80) 100 % of control.
In the case of `Cc1ccc(O)c[n+]1[O-]`, the T/C under setting [1] was 101 % of control; the T/C (dose: 50.0 mg/kg/injection, schedule: Q01DX009 (ip), vehicle: saline) was 100 % of control and 105 % of control; the T/C (dose: 100.0 mg/kg/injection, schedule: Q01DX009 (ip), vehicle: saline) is 102 % of control and 97 % of control; the T/C (dose: 200.0 mg/kg/injection, schedule: Q01DX009 (ip), vehicle: saline) was 105 % of control and 117 % of control; the T/C (dose: 400.0 mg/kg/injection, schedule: Q01DX009 (ip), vehicle: saline) was 108 % of control and 109 % of control.
`CC(C)(S)CN`: the T/C was 104 % of control (dose: 100.0 mg/kg/injection, schedule: Q01DX001 (ip), vehicle: saline); 108 % of control (dose: 200.0 mg/kg/injection, schedule: Q01DX001 (ip), vehicle: saline); 103 % of control (dose: 400.0 mg/kg/injection, schedule: Q01DX001 (ip), vehicle: saline).
As to `COc1ccc2c(c1)C(Cc1ccc(Oc3cc(CC4c5cc(OC)ccc5CC[N+]4(C)C)ccc3OC)cc1)[N+](C)(C)CC2` (stereo unspecified), the T/C runs as follows: (dose: 1.56 mg/kg/injection, schedule: Q04DX003 (ip), vehicle: water) 106 % of control; (dose: 3.13 mg/kg/injection, schedule: Q04DX003 (ip), vehicle: water) 102 % of control.
`CCC(c1ccc(OCC(=O)OCCNCCCl)cc1)C(CC)c1ccc(OCC(=O)OCCNCCCl)cc1` (stereo unspecified): the T/C under setting [5] is 101 % of control; the T/C under setting [6] is 97 % of control; the T/C (dose: 100.0 mg/kg/injection, schedule: Q04DX002 (ip), vehicle: saline) was 101 % of control; the T/C (dose: 100.0 mg/kg/injection, schedule: Q04DX002 (ip), vehicle: suspension in saline) was 97 % of control; the T/C (dose: 200.0 mg/kg/injection, schedule: Q04DX002 (ip), vehicle: suspension in saline) was 87 % of control.
`Cc1cc2c(cc1C)Nc1oc3ccc4ccccc4c3c(=O)c1C=N2`: the T/C was 104 % of control (dose: 6.25 mg/kg/injection, schedule: Q01DX005 (ip), vehicle: Klucel (hydroxypropylcellulose) (HPC)); 99 % of control (dose: 12.5 mg/kg/injection, schedule: Q01DX005 (ip), vehicle: Klucel (hydroxypropylcellulose) (HPC)); 96 % of control (dose: 25.0 mg/kg/injection, schedule: Q01DX005 (ip), vehicle: Klucel (hydroxypropylcellulose) (HPC)); 89 % of control under setting [11].
On to `COc1ccc2sc(-c3ccccc3)cc(=O)c2c1`, for which the T/C by setting is: (dose: 50.0 mg/kg/injection, schedule: Q01DX005 (ip), vehicle: Klucel (hydroxypropylcellulose) (HPC)) 100 % of control; (dose: 100.0 mg/kg/injection, schedule: Q01DX005 (ip), vehicle: Klucel (hydroxypropylcellulose) (HPC)) 101 % of control; under setting [11], 101 % of control.
Regarding `C[Si](C)(C)Cn1ccc(=O)n(C[Si](C)(C)C)c1=O`, the T/C runs as follows: under setting [2], 107 % of control; under setting [3], 101 % of control; under setting [4], 107 % of control.

These data come from PubChem BioAssay AID330 (DTP/NCI, 2004).
